Data reported in ChEMBL document CHEMBL1201862, “PubChem BioAssay data set” (2004).
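Results reflect a 48-hour exposure of cells in 96-well plates to compound at five concentrations. At the GI50, growth is halved.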 Activity calls are given as the source filed them. Cut-off read from the data, not from the text of the source: active = GI50 up to about 1.1 µM and inactive = higher.

Tests used:
Experiment in all cases: NCI-60 cell line screen, 48 h
HOP-92 = tested on: HOP-92
SF-539 = tested on: SF-539
NCI-H460 = tested on: NCI-H460
NCI-H522 = tested on: NCI-H522
SN12C = tested on: SN12C
HOP-62 = tested on: HOP-62
SF-295 = tested on: SF-295
TK-10 = tested on: TK-10
HCT-116 = tested on: HCT-116
IGROV-1 = tested on: IGROV-1
786-0 = tested on: 786-0
SW-620 = tested on: SW-620
UACC-257 = tested on: UACC-257
A498 = tested on: A498
HCT-15 = tested on: HCT-15
RPMI-8226 = tested on: RPMI-8226

Row | SMILES | GI50 (HOP-92) | GI50 (SF-539) | GI50 (NCI-H460) | GI50 (NCI-H522) | GI50 (SN12C) | GI50 (HOP-62) | GI50 (SF-295) | GI50 (TK-10) | GI50 (HCT-116) | GI50 (IGROV-1) | GI50 (786-0) | GI50 (SW-620) | GI50 (UACC-257) | GI50 (A498) | GI50 (HCT-15) [µM] | GI50 (RPMI-8226)
1 | COc1ccc(OC)c(/C=N/N=C(\N)NO)c1 | 23.3 µM (inactive) | 7.62 µM (inactive) | 15 µM (inactive) | 14.3 µM (inactive) | 31.4 µM (inactive) | 29.6 µM (inactive) | 21.9 µM (inactive) | 19.4 µM (inactive) | 24.5 µM (inactive) | 29.6 µM (inactive) | 21.4 µM (inactive) | 24.3 µM (inactive) | 30.5 µM (inactive) | > 10 µM (inactive) | 5.98 | –
2 | c1ccc(C(c2ccccc2)c2ccncc2)cc1 | – | > 100 µM (inactive) | > 100 µM (inactive) | – | > 100 µM (inactive) | > 100 µM (inactive) | > 100 µM (inactive) | > 100 µM (inactive) | > 100 µM (inactive) | > 100 µM (inactive) | > 100 µM (inactive) | > 100 µM (inactive) | 61 µM (inactive) | > 100 µM (inactive) | > 100 | > 100 µM (inactive)
3 | CC(C)(C)c1ccc(OCCOCCOc2ccc(C(C)(C)C)cc2S(=O)(=O)Nc2ccc([N+](=O)[O-])cc2)c(S(=O)(=O)Nc2ccc([N+](=O)[O-])cc2)c1 | 4.07 µM (inactive) | > 100 µM (inactive) | 8.85 µM (inactive) | – | 7.19 µM (inactive) | 81.7 µM (inactive) | 8.47 µM (inactive) | 5.64 µM (inactive) | 4.86 µM (inactive) | 12.7 µM (inactive) | 45.6 µM (inactive) | 61.8 µM (inactive) | 42.1 µM (inactive) | 8.15 µM (inactive) | 7.69 | –
4 | CC(=O)OC1CCC2C(=CCC3C2(C)C(=O)CC2(C)C(C4(C)OC(C(C)C)=CC4=O)C(O)CC32C)C1(C)C (stereo not given) | 41.3 µM (inactive) | 18.1 µM (inactive) | 27 µM (inactive) | 35.5 µM (inactive) | 54.5 µM (inactive) | > 100 µM (inactive) | – | – | > 10 µM (inactive) | 62.4 µM (inactive) | > 100 µM (inactive) | 41 µM (inactive) | – | > 100 µM (inactive) | 30.2 | 22 µM (inactive)
5 | CC(O)C(NC(=O)c1ccccc1)C(=O)N(Cc1ccccc1)Cc1ccccc1 (stereo not given) | 75.9 µM (inactive) | > 100 µM (inactive) | > 100 µM (inactive) | 7.03 µM (inactive) | > 100 µM (inactive) | > 100 µM (inactive) | 94.4 µM (inactive) | > 100 µM (inactive) | – | > 100 µM (inactive) | > 100 µM (inactive) | > 100 µM (inactive) | 80.4 µM (inactive) | 69.3 µM (inactive) | > 100 | 28.9 µM (inactive)
6 | CC(=O)OC12C(C)=C(C)C(=O)N1c1ccccc1N2C(C)=O (stereo not given) | > 100 µM (inactive) | – | > 100 µM (inactive) | > 100 µM (inactive) | – | > 100 µM (inactive) | > 100 µM (inactive) | > 100 µM (inactive) | > 100 µM (inactive) | > 100 µM (inactive) | > 100 µM (inactive) | > 100 µM (inactive) | > 100 µM (inactive) | – | > 100 | > 100 µM (inactive)
7 | O=C(Nc1ccccc1[N+](=O)[O-])C(=O)C(C(=O)c1ccccc1-c1ccccc1)C1OC(=O)c2ccccc21 (stereo not given) | – | 11.6 µM (inactive) | 15.9 µM (inactive) | 12.5 µM (inactive) | 14.6 µM (inactive) | 17.5 µM (inactive) | 16.6 µM (inactive) | 24 µM (inactive) | 18.2 µM (inactive) | 23.7 µM (inactive) | 14.7 µM (inactive) | 18.5 µM (inactive) | 16.6 µM (inactive) | 21.7 µM (inactive) | 15.9 | 18.5 µM (inactive)
8 | Cc1ccc(Sc2ccccc2N)cc1 | 22.7 µM (inactive) | 29.5 µM (inactive) | 30.4 µM (inactive) | 14.8 µM (inactive) | 41.1 µM (inactive) | 6.53 µM (inactive) | 78.2 µM (inactive) | 70.5 µM (inactive) | 35.6 µM (inactive) | 37.7 µM (inactive) | 29.2 µM (inactive) | 49 µM (inactive) | 33.4 µM (inactive) | 30.8 µM (inactive) | 37.8 | 19.3 µM (inactive)
9 | Oc1cc2c(cc1O)-c1[nH]ncc1CC2 | 14.4 µM (inactive) | 22.4 µM (inactive) | 43.3 µM (inactive) | 11.7 µM (inactive) | 49 µM (inactive) | 55.5 µM (inactive) | 49.1 µM (inactive) | 75 µM (inactive) | 51.1 µM (inactive) | 31.6 µM (inactive) | 39.6 µM (inactive) | 35.4 µM (inactive) | 58.7 µM (inactive) | 25.4 µM (inactive) | 54.1 | –
10 | CC(Oc1ccc(OCC2CCCCC2)cc1)C(=O)O (stereo not given) | – | > 100 µM (inactive) | > 100 µM (inactive) | > 100 µM (inactive) | > 100 µM (inactive) | – | > 100 µM (inactive) | > 100 µM (inactive) | > 100 µM (inactive) | > 100 µM (inactive) | > 100 µM (inactive) | > 100 µM (inactive) | > 100 µM (inactive) | – | > 100 | –
11 | CCc1cccc(C(C)C)c1NC(=O)CCl | > 100 µM (inactive) | > 100 µM (inactive) | – | 35.6 µM (inactive) | > 100 µM (inactive) | – | > 100 µM (inactive) | > 100 µM (inactive) | > 100 µM (inactive) | > 100 µM (inactive) | > 100 µM (inactive) | > 100 µM (inactive) | > 100 µM (inactive) | – | > 100 | > 100 µM (inactive)
12 | Cc1c(-c2coc(-c3ccc(Cl)cc3)n2)c(=O)n(-c2ccccc2)n1C | > 100 µM (inactive) | > 100 µM (inactive) | > 100 µM (inactive) | > 100 µM (inactive) | > 100 µM (inactive) | > 100 µM (inactive) | > 100 µM (inactive) | > 100 µM (inactive) | > 100 µM (inactive) | > 100 µM (inactive) | > 100 µM (inactive) | – | > 100 µM (inactive) | > 100 µM (inactive) | > 100 | > 100 µM (inactive)
13 | C[C@H]1C=C2C(=O)O[C@H]3CC[C@@H](C1)[C@@]23O | 5.25 µM (inactive) | 2.03 µM (inactive) | 6 µM (inactive) | 2.51 µM (inactive) | 2.4 µM (inactive) | > 10 µM (inactive) | 4.4 µM (inactive) | 4.68 µM (inactive) | 2.75 µM (inactive) | 6.03 µM (inactive) | 3.28 µM (inactive) | 3.28 µM (inactive) | 10.3 µM (inactive) | 10.6 µM (inactive) | 3.65 | 29.6 µM (inactive)
14 | COc1ccccc1/C=C(\NC(=O)c1ccccc1)c1nc2ccccc2[nH]1 | 28.9 µM (inactive) | 53.7 µM (inactive) | 50.8 µM (inactive) | 30.3 µM (inactive) | 48.8 µM (inactive) | – | – | 39 µM (inactive) | 34 µM (inactive) | 32.8 µM (inactive) | 40.1 µM (inactive) | 47 µM (inactive) | 31 µM (inactive) | 56 µM (inactive) | > 100 | 17.6 µM (inactive)
